# Source: patent publication US20160120825A1 (TIANJIN TAIPU PHARMACEUTICAL SCIENCE & TECHNOLOGY …, priority 2013, published 2016)
# Where two headings read alike, the source gives them in different places.
# Tests used:
# [1] = test system: brain nerve cells (hippocampal ventral dentate gyrus); conditions: adult rat, cited from earlier work
# [2] = change of crystalline X-form raw material in pulverization, grinding, tabletting detected by DSC; type: physicochemical
# From the text: Change of the crystalline X-form raw material in pulverization, grinding, and tabletting (at a pressure of 10 kg) was detected by DSC (see FIGS. 1-4).
# [3] = stability in the process (DSC crystal form purity, HPLC relevant substances); type: physicochemical; conditions: during formulation process
# From the text: (§1) Referring to the aforementioned test 6, tablets were manufactured according to formulation and process with hydroxyproplyl methyl cellulose and polyvinylpyrrolindone k30 in a concentration of 15% as a protective agent.
# Crystal form purity of the tablets was detected using DSC method with crystal forms and relevant substances as evaluation indexes. Regarding detection of relevant substances, HPLC method was adopted using imported drug as a standard.
# [4] = solubility of crystalline X-form agomelatine in solvents; type: physicochemical
# [5] = test on influencing factors; type: physicochemical
# Description: as §1
# We investigated in combination with formulations of the present invention: the samples were allowed to stand in an open state for 30 days under the conditions of a high temperature of 60° C., a high humidity of RH 92%, and both high temperature and high humidity (40° C., RH75%), respectively. The results are as follows: Test results on influencing factors (%)
X-form crystal purity (%) detected by DSC ([2]; after grinding),X-form crystal purity (%) detected by DSC ([2]; after pulverization),X-form crystal purity (%) detected by DSC ([2]; after tabletting (pressure of 10 kg)),X-form crystal purity (%) detected by DSC ([2]; untreated crystalline X-form),Crystal form purity ([3]; DSC),Relevant substances ([3]; HPLC),"solubility ([4]; in methanol, ethanol, acetonitrile, DMSO, etc.)",solubility ([4]; in water),Crystal form purity % ([5]; 0 day),"Crystal form purity % ([5]; 10 days at a high humidity (RH 92%), open state)","Crystal form purity % ([5]; 10 days at a high temperature (60° C.), open state)","Crystal form purity % ([5]; 10 days at both high temperature and high humidity (40° C., RH75%), open state)",Structure (SMILES),cell proliferation and neuronal regeneration in hippocampal ventral dentate gyrus ([1]; acute or subacute administration (4 hours or nine weeks)),cell proliferation and neuronal regeneration in hippocampal ventral dentate gyrus ([1]; long-term (three weeks) administration)
,,,,,,,,,,,,"COc1ccc2cccc(CCNC(C)=O)c2c1 [Agomelatine, agomelatine]",no similar situation occurred,could increase cell proliferation and neuronal regeneration
75.1%,79.4%,57.7%,100%,100,0.42%,very soluble,almost insoluble,100%,85%,68%,57%,COc1ccc2cccc(CCNC(C)=O)c2c1 [agomelatine],,
